Source: patent publication US6872745B2, “Antipicornaviral compounds and compositions, their pharmaceutical uses, and materials for their synthesis” (Agouron Pharmaceuticals, Inc., priority 2000, dated 2005)

How the values were obtained:
[1] = target: T1, rhinovirus 3C protease, serotype 14 (Human rhinovirus 14, UniProt P03303); assay: Inhibition of rhinovirus 3C protease (FRET assay, enzyme start); format: biochemical; conditions: HRV-14 3C protease, progress curves, read-out: Kobs/I
T1 construct: Recombinant rhinovirus 3C proteases; made in house
Protocol: Stock solutions (50 mM, in DMSO) of various compounds were prepared; dilutions were in the same solvent. Recombinant rhinovirus 3C proteases (see Birch et al., “Purification of recombinant human rhinovirus 14 3C protease expressed in Escherichia coli,” Protein Expr. Pur. (1995), vol. 6(5), 609-618) from serotypes 14, 16, and 2 were prepared by the following standard chromatographic procedures: (1) ion exchange using Q Sepharose Fast Flow from Pharmacia; (2) affinity chromatography using Affi-Gel Blue from Biorad; and (3) sizing using Sephadex G-100 from Pharmacia. Each assay sample contained 2% DMSO, 50 mM tris pH 7.6, 1 mM EDTA, a test compound at the indicated concentration, approximately 1 μM substrate, and 50-100 nM protease. The kobs/I values were obtained from reactions initiated by addition of enzyme rather than substrate. RVP activity was measured in the fluorescence resonance energy transfer assay. The substrate was (N-terminal) DABCYL-(Gly-Arg-Ala-Val-Phe-Gln-Gly-Pro-Val-Gly)-EDANS. In the uncleaved peptide, the EDANS fluorescence was quenched by the proximal DABCYL moiety. When the peptide was cleaved, the quenching was relieved, and activity was measured as an increase in fluorescence signal. The tabulated data in the column designated kobs/[I] were measured from progress curves in enzyme start experiments.

[2] = Cytotoxicity in mock-infected cells of the antirhinoviral assay (XTT); format: cell-based; conditions: human, H1-HeLa cells, table line HRV-14
Protocol: (§1) In this cell protection assay, the ability of compounds to protect cells against HRV infection was measured by the XTT dye reduction method, which is described in Weislow et al., J. Natl. Cancer Inst. (1989), vol. 81, 577-586. H1-HeLa cells were infected with HRV-14 at a multiplicity of infection (m.o.i.) of 0.13 (virus particles/cell) or mock-infected with medium only. Infected or mock-infected cells were resuspended at 8×10^5 cells per ml, and incubated with appropriate concentrations of the compounds to be tested. Two days later, XTT/PMS was added to test plates and the amount of formazan produced was quantified spectrophotometrically at 450/650 nm. The EC50 value was calculated as the concentration of compound that increased the percentage of formazan production in compound-treated, virus-infected cells to 50% of that produced by compound-free, mock-infected cells. The 50% cytotoxic dose (CC50) was calculated as the concentration of compound that decreased the percentage of formazan produced in compound-treated, mock-infected cells to 50% of that produced by compound-free, mock-infected cells. The therapeutic index (TI) was calculated by dividing the CC50 value by the EC50 value.
(§2) All strains of human rhinovirus (HRV) for use in this assay were purchased from American Type Culture Collection (ATCC), except for HRV serotype-14 (produced from the infectious cDNA clone constructed by Dr. Robert Rueckert, Institute for Molecular Virology, University of Wisconsin, Madison, Wis.). HRV stocks were propagated and viral assays were performed in H1-HeLa cells (ATCC). Cells were grown in minimal essential medium with 10% fetal bovine serum, available from Life Technologies (Gaithersburg, Md.).

HRV-14 = assay: Antirhinoviral H1-HeLa cell culture assay (XTT cell protection); format: cell-based, human rhinovirus; conditions: Rhinovirus B, HRV14, H1-HeLa, HRV-14, H1-HeLa cells
Protocol: as §1, §2

HRV-10 = assay: as above; format: cell-based; conditions: Human rhinovirus sp., HRV10; HRV-10, H1-HeLa cells
Protocol: as §1, §2

H1-HeLa cells = assay: Cytotoxicity in mock-infected cells of the antirhinoviral assay (XTT); format: cell-based
Protocol: as §1, §2

HRV-1A = assay: Antirhinoviral H1-HeLa cell culture assay (XTT cell protection); format: cell-based, human rhinovirus; conditions: Rhinovirus A, HRV1A, H1-HeLa cells
Protocol: as §1, §2

T1 sequence (P03303 1538-1719): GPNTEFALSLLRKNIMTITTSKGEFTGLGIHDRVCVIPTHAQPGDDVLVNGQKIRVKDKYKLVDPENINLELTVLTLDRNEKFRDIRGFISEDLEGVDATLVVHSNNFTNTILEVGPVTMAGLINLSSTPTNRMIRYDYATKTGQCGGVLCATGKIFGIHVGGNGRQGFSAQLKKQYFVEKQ

Compound | kinact/KI [1] [M⁻¹ s⁻¹] | CC50 at 2 days [2] [nM] | EC50 (HRV-14) [nM] | EC50 (HRV-10) [nM] | CC50 (H1-HeLa cells; table line HRV-1A) [nM] | CC50 (H1-HeLa cells; table line HRV-10) [nM] | EC50 (HRV-1A) [nM]
CCC[C@H](NC(=O)c1ccc(-c2ccccc2C(F)(F)F)[nH]1)C(=O)N[C@H](/C=C/C(=O)OCC)CCC(N)=O [Compound 18, 6-Carbamoyl-4S-(2S-{[5-(2-trifluoromethyl-phenyl)-1H-pyrrole-2-carbonyl]-amino}-pentanoylamino)-hex-2(trans)-enoic acid ethyl ester] | 3140 | > 10000 | 1600 | – | – | – | –
CCOC(=O)/C=C/[C@H](C[C@@H]1CCNC1=O)NC(=O)[C@H](Cc1ccccc1)NC(=O)c1ccc[nH]1 [Compound 24, 5-(2-Oxo-pyrrolidin-3S-yl)-4S-{3-phenyl-2S-[(1H-pyrrole-2-carbonyl)-amino]-propionylamino}-pent-2(trans)-enoic acid ethyl ester] | 5460 | > 100000 | 3910 | – | – | – | –
O=C1OCC/C1=C\[C@H](C[C@@H]1CCNC1=O)NC(=O)[C@H](Cc1ccc(F)cc1)NC(=O)c1ccc(-c2cccc3ccccc23)[nH]1 [Compound 26] | 188000 | > 10000 | 73 | – | – | – | –
CCOC(=O)/C=C/[C@H](CCC(N)=O)NC(=O)[C@H](Cc1ccccc1)NC(=O)c1ccc(-c2ccccc2Br)[nH]1 [Compound 14, 4S-(2S-{[5-(2-Bromo-phenyl)-1H-pyrrole-2-carbonyl]-amino}-3-phenyl-propionylamino)-6-carbamoyl-hex-2(trans)-enoic acid ethyl ester] | 34600 | > 10000 | 534 | – | – | – | –
CCOC(=O)/C=C/[C@H](CCC(N)=O)NC(=O)[C@H](Cc1ccccc1)N(C)C(=O)c1ccc(-c2ccccc2C(F)(F)F)[nH]1 [Compound 41, 6-Carbamoyl-4S-(2S {methyl-[5-(2-trifluoromethyl-phenyl)-1H-pyrrole-2-carbonyl]-amino}-3-3-phenyl-propionylamino)-hex-2(trans)-enoic acid ethyl ester] | 10700 | > 10000 | 500 | – | – | – | –
O=C1OCC/C1=C\[C@H](C[C@@H]1CCNC1=O)NC(=O)[C@@H](CC(=O)c1ccc(-c2cccc3ccccc23)[nH]1)Cc1ccc(F)cc1 [Compound 33, 2-(R,S)-(4-Fluorobenzyl)-4-(5-naphthalen-1-yl-1H-pyrrol-2-yl)-4-oxo-N-[2-(2-oxo-dihydro-furan-3-ylidine)-1S-(2-oxo-pyrrolidin-3S-ylmethyl)-ethyl]-butyramide] | 100000 | > 10000 | 212 | – | – | – | –
CCOC(=O)/C=C/[C@H](CCC(N)=O)NC(=O)[C@H](Cc1ccccc1)NC(=O)c1ccc(CCC(F)(F)F)[nH]1 [Compound 22, 6-Carbamoyl-4S-(3-phenyl-2S-{[5-(3,3,3-trifluoro-propyl)-1H-pyrrole-2-carbonyl]-amino}-propionylamino)-hex-2(trans)-enoic acid ethyl ester] | 4400 | > 10000 | 5720 | – | – | – | –
CCOC(=O)/C=C/[C@H](CCC(N)=O)NC(=O)[C@H](Cc1ccccc1)NC(=O)c1ccc(-c2ccccc2OC)[nH]1 [Compound 11, 6-Carbamoyl-4S-(2S-{[5-(2-methoxy-phenyl)-1H-pyrrole-2-carbonyl]-amino}-3-phenyl-propionylamino)-hex-2(trans)-enoic acid ethyl ester] | 5000 | > 10000 | 646 | – | – | – | –
CCOC(=O)/C=C/[C@H](C[C@@H]1CCNC1=O)NC(=O)[C@H](CC)CC(=O)c1ccc(-c2ccccc2C(F)(F)F)[nH]1 [Compound 37, 4S-{2R-Ethyl-4-oxo-4-[5-(2-trifluoromethyl-phenyl)-1H-pyrrol-2-yl]-butyrylamino}-5-(2-oxo-pyrrolidin-3S-yl)-pent-2(trans)-enoic acid ethyl ester] | 26400 | > 10000 | 266 | – | – | – | –
CCOC(=O)/C=C/[C@H](CCC(N)=O)NC(=O)[C@@H](CC(=O)c1ccc(-c2ccccc2C(F)(F)F)[nH]1)Cc1ccccc1 [Compound 40, 4S-{2R-Benzyl-4-oxo-[5-(2-trifluoromethyl-phenyl)-1H-pyrrol-2-yl]-butyrylamino}-6-carbamoyl-hex-2(trans)-enoic acid ethyl ester] | 3180 | > 10000 | 1660 | – | – | – | –
CCCC[C@H](NC(=O)c1ccc(-c2ccccc2C(F)(F)F)[nH]1)C(=O)N[C@H](/C=C/C(=O)OCC)CCC(N)=O [Compound 19, 6-Carbamoyl-4S-(2S-{[5-(2-trifluoromethyl-phenyl)-1H-pyrrole-2-carbonyl]-amino}-hexanoylamino)-hex-2(trans)-enoic acid ethyl ester] | 6650 | > 10000 | 1530 | – | – | – | –
C#CC[C@H](NC(=O)c1ccc(-c2ccccc2C(F)(F)F)[nH]1)C(=O)N[C@H](/C=C/C(=O)OCC)CCC(N)=O [Compound 16, 6-Carbamoyl-4S-(2S-{[5-(2-trifluoromethyl-phenyl)-1H-pyrrole-2-carbonyl]-amino}-pent-4-ynoylamino)-hex-2(trans)-enoic acid ethyl ester] | 7100 | > 10000 | 1320 | – | – | – | –
CCOC(=O)/C=C/[C@H](CCC(N)=O)NC(=O)[C@H](Cc1ccccc1)NC(=O)c1ccc(-c2cccnc2)[nH]1 [Compound 8, 6-Carbamoyl-4S-{3-phenyl-2S-[(5-pyridin-3-yl-1H-pyrrole-2-carbonyl)-amino]-propionylamino}-hex-2(trans)-enoic acid ethyl ester] | 1300 | > 10000 | 4920 | – | – | – | –
CCOC(=O)/C=C/[C@H](CCC(N)=O)NC(=O)[C@H](Cc1ccccc1)NC(=O)c1ccc(-c2ccccc2C(F)(F)F)[nH]1 [Compound 2, 6-Carbamoyl-4S-{3-phenyl-2S-[(5-(2-trifluoromethyl-phenyl)-1H-pyrrole-2-carbonyl)-amino]-propionylamino}-hex-2(trans)-enoic acid ethyl ester] | 32400 | > 10000 | 64 | – | – | – | –
CCOC(=O)/C=C/[C@H](CCC(N)=O)NC(=O)[C@H](Cc1ccccc1)NC(=O)c1ccc(C(C)CC(F)(F)F)[nH]1 (stereo partly drawn) [Compound 13, 6-Carbamoyl-4S-(3-phenyl-2S-{[5-(3,3,3-trifluoro-1 methyl-propyl)-1H-pyrrole-2-carbonyl]-amino}-propionylamino)-hex-2(trans)-enoic acid ethyl ester] | 6570 | > 10000 | 2010 | – | – | – | –
CCOC(=O)/C=C/[C@H](C[C@@H]1CCNC1=O)NC(=O)[C@H](Cc1ccccc1)NC(=O)c1ccc(-c2ccccc2C(F)(F)F)[nH]1 [Compound 28, 5-(2-Oxo-pyrrolidin-3S-yl)-4S-(3-phenyl-2S-{[5-(2-trifluoromethyl-phenyl)-1H-pyrrole-2-carbonyl]-amino}-propionylamino)-pent-2(trans)-enoic acid ethyl ester] | 340000 | > 1000 | 59 | 66 | > 1000 | > 1000 | 213
CCOC(=O)/C=C/[C@H](CCC(N)=O)NC(=O)[C@H](Cc1ccccc1)NC(=O)c1ccc(-c2cc(OC)ccc2OC)[nH]1 [Compound 7, 6-Carbamoyl-4S-(2S-{[5-(2,5-dimethoxy-phenyl)-1H-pyrrole-2-carbonyl]-amino}-3-phenyl-propionylamino)-hex-2-enoic acid ethyl ester] | 5200 | > 10000 | 300 | – | – | – | –
CCOC(=O)/C=C/[C@H](CCC(N)=O)NC(=O)[C@H](Cc1ccccc1)NC(=O)c1ccc(-c2cccc(C(C)C)c2)[nH]1 [Compound 6, 6-Carbamoyl-4S-(2S-{[5-(3-isopropyl-phenyl)-1H-pyrrole-2-carbonyl]-amino}-3-phenyl-propionylamino)-hex-2(trans)-enoic acid ethyl ester] | 2130 | > 10000 | 1420 | – | – | – | –
